From paper PMC7777204, “Locking mixed-lineage kinase domain-like protein in its auto-inhibited state prevents necroptosis” (Proceedings of the National Academy of Sciences of the …, 2020)

Experiments:
[1] = biological target: T1, human MLKL executioner domain (WT) (Homo sapiens, UniProt Q8NB16); assay: Functional NMR assay (detachment of α-helix 6), WT; type: biochemical; settings: for Inhibitory effect on MLKL activation (α-helix 6 detachment), in words: 12 mM NM + 500 µM IP6 + 500 µM xanthine compound, compared with Cpd 3 (Fig. 3C); for Population of the activated state (pact), α-helix 6 detached: 12 mM NM alone or 500 µM IP6 alone
T1 construct: 80 µM MLKL N-terminal executioner domain (residues 1 to 154) was used; GST (thrombin cleavage site) (cleaved yes)
T1 sequence (Q8NB16 1-154): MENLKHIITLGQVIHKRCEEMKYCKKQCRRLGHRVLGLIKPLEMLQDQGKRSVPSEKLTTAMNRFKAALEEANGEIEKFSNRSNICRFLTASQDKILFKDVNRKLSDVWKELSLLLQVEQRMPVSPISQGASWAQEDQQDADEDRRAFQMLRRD
From the text: To test the significance of the additional interaction between α-helix 6 and the four-helix bundle provided by the xanthine compounds stacking to the phenyl ring of Phe148, we used a described functional NMR assay ([12]). Binding of phytic acid (IP6) and the detergent β-D-nonylmaltoside (NM) led to the detachment of α-helix 6, which can be monitored in ^1H,^15N-correlation spectra by the altered chemical shift of the Hε1–Nε1 correlation of Trp133 and the backbone N–H correlation of Ala141 ([12]). […] Adding 12 mM NM or 500 µM IP6 led to the appearance of a second very weak peak reporting on the detached α-helix 6 with a population of the activated state (pact) of 1% and 4%, respectively (Fig. 3). […] Combining 12 mM NM and 500 µM IP6 induced a dramatic increase of the population of the detached state (pact 86%). […] To further validate the importance of the π–π stacking interaction between the xanthine and Phe148 in α-helix 6, we carried out the functional NMR assay with the F148A-mutated variant of MLKL. The removal of the phenyl group induced significant CSPs localized in close proximity to the mutation site, due to the removal of ring currents and, therefore, strong electronic changes. […] MLKL F148A was more sensitive to the addition of 12 mM NM, 500 µM IP6, or the combination thereof. In the spectra in the presence of NM and the combination of NM and IP6, a third Trp133 peak appeared, most likely reporting on a state similar to the active state. […] Thus, the stacking interaction of the xanthine core to Phe148 is vital for the inhibitory activity of these MLKL inhibitors.
Fig. 3. (A and B) The region of the NMR ^1H,^15N-correlation spectra of the MLKL executioner domain (protein concentration: 80 µM) containing the cross-peaks of Trp133 Nε1–Hε1 in the auto-inhibited state where α-helix 6 is attached to the four-helix bundle (inact. state) and in the active, detached state (act. state) are shown. The unliganded state is depicted in black, with 12 mM NM in cyan; 500 µM IP6 in orange; 500 µM Cpd 3 in blue; 12 mM NM and 500 µM IP6 in red; and 12 mM NM, 500 µM IP6, and 500 µM Cpd 3 in green. The spectra depicted in A are measured with the WT protein and in B with the F148A variant. […] Dark gray bars correspond to the WT, while light gray bars correspond to the F148A variant. The asterisk means that no active conformation could be detected. Double asterisks indicate data not determined.
For the functional NMR assay ^1H,^15N-correlation spectra were recorded on a Bruker Avance III HD 600-MHz NMR spectrometer equipped with a cryogenic QCI probe in 2.5-mm NMR tubes at 298 K. Spectra were recorded with 64 complex points in the indirect dimension, 96 scans, and an interscan delay of 2 s. For the samples, 80 µM MLKL N-terminal executioner domain (residues 1 to 154) was used in a 20 mM sodium phosphate buffer at pH 7.5 containing 150 mM sodium chloride and 1 mM TCEP. For the different conditions, either 500 µM IP6, 12 mM NM, or a combination of the two were used. The xanthine compounds were tested at 500 µM, while NSA, due to limited solubility, was tested only at 200 µM, which is sufficient to saturate MLKL. Spectra were analyzed, and peaks were integrated in CcpNnmr analysis ([39]).

U937 cells [2] = assay: U937 necroptosis assay; type: cell-based; settings: Homo sapiens, U-937, huTNFα plus 10 µM zVAD-fmk, read-out: U937 NEC IC50
Protocol: (§1) For the Jurkat FADD^−/− Necroptosis assay, compounds were serially diluted in 100% dimethyl sulfoxide (DMSO) (Sigma-Aldrich catalog no. 41641), and 250 nL was transferred to a sterile 384-well microtiter plate (PerkinElmer catalog no. 6007688) via Echo liquid handler (LABCYTE). Five thousand Jurkat FADD ^−/− cells (ATCC catalog no. CRL-2572) in 20 µL of modified Roswell Park Memorial Institute medium (Gibco catalog no. 10491), 10% fetal calf serum (Gibco catalog no. 100500), 1x Anti/Anti (Gibco catalog no. 15240-062), 1x L-Glutamax (Gibco catalog no. 35050-087), and 1% PenStrep (SIGMA catalog no. P4333) were seeded into each well of the prepared assay plate with compound. Cells and compounds were incubated for 30 min at 37 °C (humidified incubator with 5% CO2). After incubation, 5 µL of recombinant human TNFα (huTNFα) (Biotrend catalog no. cyt-223; 10 ng/mL final concentration [f.c.]) was added to the cells, followed by an incubation of 24 h at 37 °C. Following the incubation, the experimental plates were equilibrated to room temperature (30 min) before 25 µL of Cell Titer Glo Luminescent Cell Viability Assay System reagent (Promega catalog no. G7571) was added to the plate wells, incubated at room temperature for ∼10 min. After incubation, the samples were analyzed for luminescence by using an Envision reader (PerkinElmer).
(§2) Each assay plate contained wells with “high” and “low” controls. High controls (100% CTL) were defined as cells treated with DMSO, and low controls (0% CTL) were defined as cells treated with 10 ng/mL recombinant huTNFα. IC50 values were calculated based on the percentage of control values using a four-parameter-fitting model.
(§3) MLKL antagonists were also evaluated in a necroptosis assay with U937 cells ([26]) (ATCC catalog no. CRL-1593.2). The assay procedure with U937 cells was as described for the Jurakt FADD^−/− necroptosis assay with the following modifications: 8,000 cells were seeded per well, and, in addition to the recombinant huTNFα, cells were also incubated in the presence of 10 µM (f.c.) carbobenzoxy-valyl-alanyl-aspartyl-[O-methyl]-fluoromethylketone (zVAD-fmk) (Enzo Life Sciences catalog no. ALX-260-020). Low controls (0% CTL) were defined as cells treated with 100 ng/mL recombinant huTNFα plus 10 µM zVAD-fmk.
(§4) All cellular assays were done for Cpd 1, Cpd 2, Cpd 3, Cpd 4, and Cpd 5 in duplicate and in quadruplet for NSA.

Jurkat FADD−/− cells [3] = assay: Jurkat FADD−/− cytotox assay; type: cell-based; settings: Homo sapiens, without huTNFα, Cell Titer Glo viability, read-out: Jurkat TOX IC50
Protocol: as §1
(§5) MLKL antagonists were tested in cytotox assays by using Jurkat FADD^−/− and U937 cells according to the assay procedures described for the necroptosis assays, but without treatment with recombinant huTNFα and/or zVAD-fmk. High controls (100% CTL, no effect) were defined as cells treated with DMSO, and low controls (0% CTL) were defined as medium without cells (0% CTL, maximal effect).
as §4

Jurkat FADD−/− cells [4] = assay: Jurkat FADD−/− necroptosis assay; type: cell-based; settings: Homo sapiens, 10 ng/mL huTNFα, 24 h, Cell Titer Glo viability, read-out: Jurkat NEC IC50
Protocol: as §1, §2, §4

U937 cells [5] = assay: U937 cytotox assay; type: cell-based; settings: Homo sapiens, U-937, without huTNFα and zVAD-fmk, read-out: U937 TOX IC50
Protocol: as §3, §5, §4

C86S-mutated MLKL = settings: cited from earlier work
U937 cells [6] = assay: U937 apoptosis assay; type: cell-based; settings: Homo sapiens, U-937, 100 ng/mL huTNFα plus 3 µM NSA, read-out: U937 APOP IC50
Protocol: as §3
Furthermore, MLKL antagonists were tested in a U937 apoptosis assay in the presence of 3 µM (f.c.) NSA (Tocris catalog no. 5025) and 100 ng/mL (f.c.) recombinant huTNFα in the same way as described for the U937 necroptosis assay. Low controls (0% CTL) were defined as cells treated with 100 ng/mL recombinant huTNFα plus 3 µM NSA.
as §4

Compound	Inhibitory effect on MLKL activation (α-helix 6 detachment), in words ([1]; WT)	IC50 (U937 cells [2]) [µM]	IC50 (Jurkat FADD−/− cells [3]) [µM]	IC50 (Jurkat FADD−/− cells [4]) [µM]	IC50 (U937 cells [5]) [µM]	Activity in MLKL knockout cells transfected with C86S-mutated MLKL (C86S-mutated MLKL)	IC50 (U937 cells [6]) [µM]	Effect on α-helix 6 detachment, in words ([1]; WT MLKL:NSA complex (200 µM NSA), addition of 12 mM NM and 500 µM IP6)	Induction of the active state by compound alone ([1]; WT, compound alone (Cpd 3 500 µM, NSA 200 µM), no NM/IP6)	Population of the activated state (pact), α-helix 6 detached ([1]; WT) [%]
COCCOCn1c(S(C)(=O)=O)nc2c1c(=O)n(C)c(=O)n2C [Cpd 2]	even less activated	0.042	3.83	0.069	4.38	hampered	> 100	–	–	–
COc1nccnc1NS(=O)(=O)c1ccc(NC(=O)/C=C/c2ccc([N+](=O)[O-])s2)cc1 [NSA, Necrosulfonamide]	–	0.454	6.2	1.4	14.7	–	> 100	complete population shift to the active α-helix detached state	α-helix 6 remains in the attached auto-inhibitory state	–
Cn1c(=O)c2c(nc([S+](C)[O-])n2C)n(C)c1=O (centres unmarked) [Cpd 4]	significantly reduced	3.17	> 100	5.24	> 100	–	> 100	–	–	–
O=P(O)(O)O[C@H]1[C@H](OP(=O)(O)O)[C@@H](OP(=O)(O)O)[C@H](OP(=O)(O)O)[C@@H](OP(=O)(O)O)[C@H]1OP(=O)(O)O [IP6, phytic acid]	–	–	–	–	–	–	–	–	–	4
CCCCCCCCCO[C@@H]1O[C@H](CO)[C@@H](O[C@H]2O[C@H](CO)[C@@H](O)[C@H](O)[C@H]2O)[C@H](O)[C@H]1O [NM, β-D-nonylmaltoside]	–	–	–	–	–	–	–	–	–	1
Cn1c(=O)c2c(nc(S(C)(=O)=O)n2C)n(C)c1=O [Cpd 1]	even less activated	0.312	56.3	0.574	> 100	hampered	> 100	–	–	–
CSc1nc2c(c(=O)n(C)c(=O)n2C)n1C [Cpd 5]	abolished	> 100	> 100	> 100	> 100	–	> 100	–	–	–
